Data: a melting point compilation (Tetko et al.; mined from patent text by program, amines drawn as free bases though some values may be those of a salt)

First: CCOC(=O)C1CCC2(CCN(S(=O)(=O)c3ccc(C)cc3)c3ccccc3C2)C1=O (stereo unspecified)
Second: O=C(OCc1ccccc1)c1ncn2c1[C@@H]1CCCN1C(=O)c1c(Cl)cccc1-2
The melting point of the first is lower: 114 to 116 °C for the first, 141 to 142 °C for the second.

Compared with `O=C(c1ccc(O)cc1)c1c(-c2ccc(O)cc2)sc2ccccc12`, `Oc1ccc(-c2cc3ccc(O)cc3s2)cc1` is higher in melting point: 90 °C for the first, 305 to 306 °C for the second.

Compared with `CC(=O)Nc1ccc(CC[C@](O)(CC(=O)O)C(C)C)cc1`, `COC(=O)COc1ccc2cc(CNC(=O)OC(C)(C)C)ccc2c1Br` is lower in melting point: 119 to 120 °C for the first, 96 to 100 °C for the second.

First: C=CCNC(=O)C=C(C)N
Second: CNC(=O)n1cnc(C(N)=O)c1N
The melting point of the first is lower: 143 to 144 °C for the first, 165 to 169 °C for the second.

Compared with `O=C(OCc1ccccc1)[C@H](CC(=O)N1C[C@H]2CCCC[C@H]2C1)Cc1ccccc1`, `O=C(OCc1ccccc1)N1C[C@@H]2CN(c3ccc(N4C[C@H](CO)OC4=O)cc3)C[C@@H]2C1` is higher in melting point: 107 to 108 °C for the first, 163 to 164 °C for the second.

Compared with `CCOc1c(OC)cc(C(=O)N2CCN(C(=O)C3=Cc4cc(OC)c(OC)cc4CCC3)CC2)cc1OC`, `CCOc1nc(-c2ccc(OC)c(OC)c2)cc(=Nc2c(C)cc(C)cc2C)n1C` is lower in melting point: 171 to 172 °C for the first, 116 to 119 °C for the second.

Compared with `CCCc1c(OCCCCCCc2cccc(O)c2O)ccc(C(=O)O)c1OC(C)=O`, `CCCCCc1c(-c2ccc3c(Br)c(OCC#N)ccc3c2)oc2ccccc12` is lower in melting point: 130 to 132 °C for the first, 111 to 113 °C for the second.

First: COc1cc(CNC(=O)c2nc3scc(COc4ccc(C(=O)O)cc4)c3c(=O)[nH]2)ccc1F
Second: O=C(Cc1ccccc1)c1ccc(OCC(F)(F)F)cc1
The melting point of the first is higher: 276 to 281 °C for the first, 108 °C for the second.

First: CC1(C)CCCNC1C(=O)O (stereo unspecified)
Second: O=C(O)C1CCCc2sc(=O)[nH]c21 (stereo unspecified)
The melting point of the first is higher: over 305 °C for the first, 192 °C for the second.

Compared with `COc1ccc2c3ccnc(C)c3n(CCCc3ccccc3)c2c1`, `CCN(CC)C(=O)C(C)c1cc(-c2ccccc2)nc2ccccc12` (stereo unspecified) is higher in melting point: 117 to 118 °C for the first, 132 °C for the second.

First: COc1cc2[nH]c(=O)sc2cc1OC
Second: COc1cc2ccnc(C=Cc3c(Cl)cccc3Cl)c2cc1OC
The melting point of the first is higher: 192 to 193 °C for the first, 145 to 146 °C for the second.

First: O=C(Nc1ccc(Br)cc1)c1ccccc1[N+](=O)[O-]
Second: O=C(c1ccc(Cl)cc1)c1cccc([N+](=O)[O-])c1N1CCCCC1
The melting point of the first is higher: 202 to 205 °C for the first, 141 °C for the second.

First: COC(=O)CCC(=O)c1ccc(C)cc1OCC1CO1 (stereo unspecified)
Second: COC(=O)C(=[N+]=[N-])c1ccc(S(C)(=O)=O)c(Cl)c1
The melting point of the first is lower: 61.5 to 63 °C for the first, 103 to 106 °C for the second.

First: CCCCCCCCC=CCCCCCCCC(=O)Cl
Second: CCCCCCCNC(=O)CCCCSc1nc(-c2ccccc2)c(-c2ccccc2)[nH]1
The melting point of the first is lower: 73 to 74 °C for the first, 104 to 106 °C for the second.

First: Cc1nc(N)sc1S(=O)(=O)N1CCC(O)C1 (racemic)
Second: CCOC(=O)C1CCN(c2nc(COc3ccc(C=O)cc3OC)c(C)s2)CC1
The melting point of the first is higher: 165 °C for the first, 97 to 98 °C for the second.

First: COc1ccc(C2Cc3ccccc3-c3nc(N)c4ccccc4c32)c(OC)c1OC (stereo unspecified)
Second: CCCCC1C=C(n2c3ccccc3c3ccccc32)c2ccccc2N1C(=O)c1ccc(OC)c(OC)c1 (stereo unspecified)
The melting point of the first is higher: 283 °C for the first, 174 to 175 °C for the second.

First: CNC(=O)C(C)Oc1ncn(-c2ccc(Br)cc2)n1 (stereo unspecified)
Second: CC(C)c1nc(-c2ccccc2)n(-c2ccc(F)cc2)c1C=C(Br)Br
The melting point of the first is higher: 176 to 178 °C for the first, 164 to 165 °C for the second.

Compared with `COc1cc(C(=O)N[C@@H]2CCN(C)C2)ccc1Nc1ncc2c(n1)N(C1CCCCC1)CC(F)(F)C(=O)N2C`, `CNC1CCN(c2c(F)c(N)c3c(=O)c(C(=O)O)cn(C4CC4)c3c2C)C1` (stereo unspecified) is higher in melting point: 98 to 99 °C for the first, 200 to 202 °C for the second.

First: Nc1nc(-c2cc(Cl)ccc2Cl)nc(N2CCOCC2)n1
Second: NCCN1CCN(c2ncc3ncnc(Nc4ccc(F)c(Cl)c4)c3n2)CC1
The melting point of the first is higher: 189 to 191 °C for the first, 175 to 180 °C for the second.

First: N=c1nc(Nc2ccccc2)nc2[nH]c3ccccc3n12
Second: Cc1cc(NCC(=O)N(C)c2ccccc2)nc(-c2ccccc2)n1
The melting point of the first is higher: over 300 °C for the first, 134 to 136 °C for the second.

First: CC(C)(C)OC(=O)NCc1nc(C(=O)ON2C(=O)CCC2=O)cs1
Second: C[C@H]1Oc2cccc(F)c2N(C)C(=O)[C@H]1NC(=O)OC(C)(C)C
The melting point of the first is higher: 171 °C for the first, 130 to 138 °C for the second.

First: Cc1nc2ccccc2n1Cc1cc([N+](=O)[O-])ccc1O
Second: Nc1ccc(Cl)cc1Cc1ccccc1Cl
The melting point of the first is higher: over 260 °C for the first, 64 to 65 °C for the second.

First: Cc1cc2c(cc1O)C(C)(C)CC1(CC(C)(C)c3cc(OC(C)(C)C(=O)O)c(C)cc3O1)O2 (stereo unspecified)
Second: CCOC(=O)/C=C/c1cccc(C2COc3c(C)c(C)c(NC(=O)CC(C)(C)C)c(C)c32)c1 (stereo unspecified)
The melting point of the first is lower: 99 to 101 °C for the first, 199 to 200 °C for the second.

First: NC(=O)C1CCc2[nH]c3ccc(F)c(Cl)c3c2C1 (stereo unspecified)
Second: O=C(c1ccccc1)c1[nH]c2cc(Cl)ccc2c1CC(=O)N1CCOCC1
The melting point of the first is higher: 226 to 227 °C for the first, 188 to 190 °C for the second.

First: CC1(C)Nc2ncc(I)cc2NC1=O
Second: O=C1Nc2ccccc2OCC1(Cl)Cl
The melting point of the first is higher: over 300 °C for the first, 170 to 174 °C for the second.

First: CSCCOc1ccccc1NN
Second: CCCOc1ccccc1-c1nc2nc(NCCO)ncc2c(=O)[nH]1
The melting point of the first is lower: 72.5 to 74.5 °C for the first, 204 to 206 °C for the second.

First: CCOC[C@@H]1[C@H](c2ccc(Cl)c(Cl)c2)C[C@H]2CC[C@@H]1N2C
Second: CCc1cn(C2CC(O)C(CCCNC(=O)Cc3c(Cl)cccc3Cl)O2)c(=O)[nH]c1=O (stereo unspecified)
The melting point of the first is lower: 52.5 to 54.5 °C for the first, 227 to 229 °C for the second.

First: O=S(=O)(Oc1ccc2c(OS(=O)(=O)c3ccc(O)cc3)c3cc(OS(=O)(=O)c4ccc(O)cc4)ccc3cc2c1)c1ccc(O)cc1
Second: COc1ccc(-c2nc(S(=O)(=O)c3ccc(Cl)cc3)[nH]c2-c2ccc(OC)cc2)cc1
The melting point of the first is higher: 192 to 194 °C for the first, 187 to 188 °C for the second.

First: Cc1ccccc1[PH](=O)c1ccccc1C
Second: O=Cc1cc2c3ccccc3c3ccccc3c2o1
The melting point of the first is higher: 91.3 °C for the first, 84 to 85 °C for the second.

Compared with `CC1Cc2cc3c(cc2C(c2ccc([N+](=O)[O-])cc2)=NN1C1=NCCO1)OCO3` (stereo unspecified), `CN1C(=O)CC[C@]2(C)c3ccc(-c4ccc(O)c(Cl)c4)cc3CC[C@@H]12` is higher in melting point: 194 to 196 °C for the first, 245 °C for the second.

First: Cc1[nH]cc2c1-c1ccc(Cl)cc1C(c1ccccc1Cl)=NC2
Second: CN1C(=O)CN=C(c2ccccc2F)c2cc(NC(=O)NCCCl)ccc21
The melting point of the first is lower: 219 to 222 °C for the first, 240 °C for the second.

Compared with `N#Cc1ccccc1-c1ccc(CO)cn1`, `Cc1ccc(-c2ncc(-c3cccs3)s2)cc1` is lower in melting point: 152 to 153 °C for the first, 85.5 to 86.5 °C for the second.

First: CC1CCC(CNc2cc3oc(=O)[nH]c3cc2F)C(C)O1 (stereo unspecified)
Second: N#Cc1nc(Cl)c(-c2c(F)cc(F)cc2F)c(N2CCCO2)n1
The melting point of the first is higher: 123 to 139 °C for the first, 107 to 113 °C for the second.

First: O=Cc1ccc(O)c(NC(=O)CCl)c1
Second: COc1nc(C)nc(NC(=O)NS(=O)(=O)c2cccc3c2OC(C)(C)O3)n1
The melting point of the first is higher: 190 to 192 °C for the first, 160 to 168 °C for the second.

First: CC1CCC2(OC1)OC1CC3C4CCC5CC(O[Si](C)(C)C)CCC5(C)C4CCC3(C)C1C2C (stereo unspecified)
Second: CC(=O)/C(=N/O[C@H]1CC[C@H](C(=O)N(C)C)CC1)C(=O)OC(C)(C)C
The melting point of the first is higher: 197 to 198 °C for the first, 109 to 110 °C for the second.

`CCOC(=O)C(N)Cc1c(OCC)noc1C(=O)O` (racemic) and `CCCCCC1=NNC(C)=C(C(=O)NN)C1c1ccccc1` (stereo unspecified) cannot be ordered by melting point: 159 to 161 °C for the first, 161 °C for the second.

First: CCC(=S)C1=C(C)NC2=C(C(=O)c3ccccc32)C1c1ccccc1 (stereo unspecified)
Second: Cn1cc(C2=C(c3cn(C)c4ccccc34)C(=O)NC2=O)c2ccccc21
The melting point of the first is lower: 248 to 249 °C for the first, over 300 °C for the second.

First: Cc1ccc(C2NCCc3c2[nH]c2ccccc32)cc1 (stereo unspecified)
Second: CN1C(=O)CCC2(C)c3ccc(Sc4cncc5ccccc45)cc3CCC12 (stereo unspecified)
The melting point of the first is higher: 207 to 209 °C for the first, 161 to 163 °C for the second.

First: N#Cc1ccc(N2C(=O)N(CC#CCO)C(CF)(CF)C2=O)cc1C(F)(F)F
Second: COc1cc2ncc(C#N)c(Nc3cccc(C(F)(F)F)c3)c2cc1OC
The melting point of the first is lower: 131 to 132 °C for the first, 190 to 193 °C for the second.

Compared with `CCN1C(=O)N(SC(Cl)(Cl)Cl)C(=O)C1(C)C`, `CC(=O)OCCOC(C)n1cc(F)c(=O)[nH]c1=O` (stereo unspecified) is lower in melting point: 141 to 142 °C for the first, 121 to 122 °C for the second.

First: O=C(NCc1cccnc1)c1[nH]c2ccc(Cl)cc2c1S(=O)(=O)c1ccccc1
Second: COCCNC(=O)c1ccc(CN2C(=O)C3(COc4cc5c(cc43)CCO5)c3ccccc32)cc1 (stereo unspecified)
The melting point of the first is higher: 263 to 264 °C for the first, 182 to 183 °C for the second.

Compared with `COC(=O)C1=C(C#N)NC(C)=C(C(=O)OC(C)C)C1c1ccccc1[N+](=O)[O-]` (stereo unspecified), `COc1ccc(C2(C)C(=O)Nc3cc(Cl)cc(Cl)c3C2=O)cc1[N+](=O)[O-]` (stereo unspecified) is higher in melting point: 176 °C for the first, 255 to 256 °C for the second.

Compared with `COc1cc(Nc2nccc(Nc3ccc(O)cc3)n2)cc(OC)c1OC`, `Nc1ccc(F)cc1Nc1ccc(F)cc1` is lower in melting point: 112 to 115 °C for the first, 83 to 84 °C for the second.

First: COC(=O)c1cccc(-c2ccoc2C(F)F)c1
Second: COC(=O)c1ccc2c(c1)CN(c1c(F)cc3c(=O)c(C(=O)O)cn(-c4ccc(F)cc4F)c3c1F)C2
The melting point of the first is lower: 55 to 56 °C for the first, 248 to 251 °C for the second.

Compared with `O=C(O)COc1ccc(SCc2ccc(-c3ccc(C(F)(F)F)cc3)cc2)c2c1CCC2`, `CC(Cc1ccc(C(=O)c2ccc(Cl)cc2)cc1)S(=O)(=O)C(F)(F)F` (stereo unspecified) is lower in melting point: 158 to 159 °C for the first, 107 to 109 °C for the second.

Compared with `CC=C(CC)c1nc(C)nc2c1c(C)c(C)n2-c1c(C)cc(C)cc1C`, `Cc1ccc(C(=O)Nc2ccc(C)c(-c3nc(N(C)C)nc4c3CNC(=O)N4c3c(F)cccc3F)c2)cc1F` is higher in melting point: 59 to 61 °C for the first, 258 to 264 °C for the second.

First: COc1ccc(C(=O)O)c2c1OCCO2
Second: CC(=O)SCC(Cc1ccccc1)C(=O)NN1CCSCC1 (stereo unspecified)
The melting point of the first is higher: 224 to 226 °C for the first, 138 °C for the second.

Compared with `N#CN1CCC(c2nn(C(=O)c3ccccc3)c3ccccc23)CC1`, `Clc1cccc(N2CCN(Cc3cn4cc(Cl)ccc4n3)CC2)c1` is higher in melting point: 144 to 146 °C for the first, 148 to 149 °C for the second.

Compared with `Cn1c(C(F)(F)F)n[nH]c1=O`, `CCCc1nc2c(N)nc3ccccc3c2n1CCOCCCS(C)(=O)=O` is higher in melting point: 64 °C for the first, 149 to 151 °C for the second.

Compared with `CCCCC[C@H]1CC[C@H](CCc2ccc(O)cc2)CC1`, `CC(=O)CC1CN=C(c2cc3cccc(N(C)S(=O)(=O)c4cccs4)c3[nH]2)S1` (stereo unspecified) is higher in melting point: 102 °C for the first, 123 to 124 °C for the second.

Work on `CC(=O)Nc1nc(/C=C/c2ccc([N+](=O)[O-])cc2)c(-c2ccc(S(C)(=O)=O)cc2)s1` yielded a melting point of 294 to 295 °C.
